Results reported in patent publication US7615651B2, “Diaryl, dipyridinyl and aryl-pyridinyl derivatives and uses thereof” (Pfizer Inc., priority 2006, dated 2009).
Read-outs that look alike come from different tables or passages of the source.

Columns and labels:
opioid receptor delta = biological target: T1, opioid receptor delta (Homo sapiens, UniProt P41143); test: GTPγ[35S] binding assay, antagonism of BW-373U86; format: biochemical
T1 construct: expressed in transfected cells
Description: (§1) Membranes were prepared from cells as described (Bass et al, 1996). GTPγ[5S] binding assays were performed in a 96 well FlashPlate™ format in duplicate using […] GTPγ[^35S] and 5 μg membrane per well in assay buffer composed of 50 mM Tris HCl, pH 7.4, 5 mM MgCl2, 1 mM EDTA, 100 mM NaCl, 30 μM GDP, 0.1% bovine serum albumin and the following protease inhibitors: 100 μg/ml bacitracin, 100 μg/ml benzamidine, 5 μg/ml aprotinin, 5 μg/ml leupeptin. The assay mix was then incubated at 30° C. with increasing concentrations of antagonist (10^−10 M to 10^−5 M) for 10 minutes and challenged with the agonists BW-373U86 (1 nM), dynorphin-A (10 nM), […] (1 μM) for opioid receptors delta, kappa, and mu, respectively. The assays were performed at 30° C. for one hour. The FlashPlates were then centrifuged at 2000×g for 10 minutes. Stimulation of GTPγ[^35S] binding was then quantified using a Wallac Microbeta and Ki calculations were done using Prism™ by Graphpad.

opioid receptor mu = biological target: T2, opioid receptor mu (Homo sapiens, UniProt P35372); test: GTPγ[35S] binding assay, antagonism of endorphin; format: biochemical
T2 construct: expressed in transfected cells
T2 sequence (P35372 whole entry): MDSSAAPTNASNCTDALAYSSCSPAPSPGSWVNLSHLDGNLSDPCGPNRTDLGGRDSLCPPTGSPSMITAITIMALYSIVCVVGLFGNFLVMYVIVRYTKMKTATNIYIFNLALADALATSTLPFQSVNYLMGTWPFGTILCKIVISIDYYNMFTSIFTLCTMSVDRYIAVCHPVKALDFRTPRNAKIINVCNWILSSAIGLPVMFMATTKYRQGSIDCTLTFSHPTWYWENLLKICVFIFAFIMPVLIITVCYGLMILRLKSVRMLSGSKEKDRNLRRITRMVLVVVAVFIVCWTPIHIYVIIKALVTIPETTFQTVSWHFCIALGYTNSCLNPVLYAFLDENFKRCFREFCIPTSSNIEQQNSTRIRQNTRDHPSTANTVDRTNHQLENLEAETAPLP
Description: as §1

[1] = Spontaneous food intake model; format: in vivo, Sprague-Dawley rats; conditions: rats dosed before onset of dark cycle, compared with vehicle
Description: Male Sprague-Dawley rats may be obtained from Charles River Laboratories, Inc. (Wilmington, Mass.). The rats were individually housed and fed powdered chow. They were maintained on a 12 hour light/dark cycle and received food and water ad libitum. The animals were acclimated to the vivarium for a period of one week before testing is conducted. Rats were transferred to individual test cages 30 hours before the study. The rats were administered test compound or vehicle alone (no compound) 15-30 minutes prior to the onset of the dark cycle. The test compounds were dosed at ranges between 0.1 and 100 mg/kg depending upon the compound. The standard vehicle was 0.5% (w/v) methylcellulose or 30% β-cyclodextrin in water and the standard route of administration was oral. However, different vehicles and routes of administration are used to accommodate various compounds when required. Food intake was monitored using an automated Columbus Instruments system (Columbus, Ohio). Individual rat food intake was recorded continuously at 10-minute intervals, starting at the time of dosing, for a period of at least 12 hours. Compound efficacy was determined by comparing the food intake pattern of compound-treated rats to vehicle.

opioid receptor kappa = biological target: T3, opioid receptor kappa (Homo sapiens, UniProt P41145); test: GTPγ[35S] binding assay, antagonism of dynorphin-A; format: biochemical
T3 construct: expressed in transfected cells
T3 sequence (P41145 whole entry): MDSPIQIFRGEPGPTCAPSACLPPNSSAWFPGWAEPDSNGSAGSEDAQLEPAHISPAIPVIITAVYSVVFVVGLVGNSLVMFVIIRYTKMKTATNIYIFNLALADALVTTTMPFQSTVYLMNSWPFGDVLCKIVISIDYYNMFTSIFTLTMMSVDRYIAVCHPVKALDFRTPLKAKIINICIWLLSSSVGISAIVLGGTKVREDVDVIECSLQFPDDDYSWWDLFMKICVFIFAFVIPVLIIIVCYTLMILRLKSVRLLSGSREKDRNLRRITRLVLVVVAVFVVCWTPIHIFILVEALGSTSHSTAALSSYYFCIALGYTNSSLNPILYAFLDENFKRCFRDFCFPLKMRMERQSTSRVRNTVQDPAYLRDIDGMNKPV
Description: as §1

[2] = average Ki, antagonism of BW-373U86 (1 nM) stimulated GTPγ[35S] binding, delta opioid receptor membranes, read-out: Delta functional (GTPγ[35S] binding Ki)
[3] = average Ki, antagonism of endorphin (1 μM) stimulated GTPγ[35S] binding, mu opioid receptor membranes, read-out: Mu functional (GTPγ[35S] binding Ki)
[4] = average Ki, antagonism of dynorphin-A (10 nM) stimulated GTPγ[35S] binding, kappa opioid receptor membranes, read-out: Kappa functional (GTPγ[35S] binding Ki)
[5] = average Ki, antagonism of BW-373U86 (1 nM) at delta opioid receptor membranes, read-out: Delta functional Ki (GTPγ[35S] binding)
[6] = average Ki, antagonism of endorphin (1 μM) at mu opioid receptor membranes, read-out: Mu functional Ki (GTPγ[35S] binding)
[7] = average Ki, antagonism of dynorphin-A (10 nM) at kappa opioid receptor membranes, read-out: Kappa functional Ki (GTPγ[35S] binding)
[8] = read-out: Delta functional Ki (GTPγ[35S] binding)
[9] = read-out: Mu functional Ki (GTPγ[35S] binding)
[10] = read-out: Kappa functional Ki (GTPγ[35S] binding)

T1 sequence (P41143 whole entry): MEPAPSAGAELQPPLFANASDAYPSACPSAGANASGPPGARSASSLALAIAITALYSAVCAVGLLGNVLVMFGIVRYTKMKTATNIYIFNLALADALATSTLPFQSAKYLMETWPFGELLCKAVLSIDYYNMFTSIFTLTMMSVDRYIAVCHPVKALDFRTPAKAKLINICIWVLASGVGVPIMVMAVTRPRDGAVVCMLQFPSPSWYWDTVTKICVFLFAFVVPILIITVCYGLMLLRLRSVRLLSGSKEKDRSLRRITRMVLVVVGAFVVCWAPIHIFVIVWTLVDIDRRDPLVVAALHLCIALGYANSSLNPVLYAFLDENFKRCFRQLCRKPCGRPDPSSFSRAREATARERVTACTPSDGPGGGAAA

Row | SMILES | Ki (opioid receptor delta; [8]) | Ki (opioid receptor mu; [9]) | Ki (opioid receptor kappa; [10]) | further results
1 | CC(C)CCNCc1ccc(-c2cc(C(N)=O)ccc2F)c(F)c1.Cl [1A-07] | – | – | – | Ki (opioid receptor delta; [2]): 9.49 nM; Ki (opioid receptor mu; [3]): 14.5 nM; food intake [1]: significant reduction in food intake; Ki (opioid receptor kappa; [4]): 14.3 nM
2 | Cc1cc(C(N)=O)ccc1-c1ccc(CNCCC(C)C)cc1F.Cl [1B-03] | – | – | – | Ki (opioid receptor delta; [2]): 5.09 nM; Ki (opioid receptor mu; [3]): 8.96 nM; food intake [1]: significant reduction in food intake; Ki (opioid receptor kappa; [4]): 3.32 nM
3 | Cc1cc(C(N)=O)ccc1-c1ccc(CNC2Cc3ccccc3C2)cc1.Cl [4B-04] | – | – | – | Ki (opioid receptor delta; [2]): 0.185 nM; Ki (opioid receptor mu; [3]): 0.0925 nM; food intake [1]: significant reduction in food intake; Ki (opioid receptor kappa; [4]): 0.406 nM
4 | Cc1cc(C(N)=O)ccc1-c1ccc(CNCCCc2ccccc2)cc1.Cl [4B-08] | – | – | – | Ki (opioid receptor delta; [2]): 0.838 nM; Ki (opioid receptor mu; [3]): 2.84 nM; food intake [1]: significant reduction in food intake; Ki (opioid receptor kappa; [4]): 2.19 nM
5 | Cc1cc(C(N)=O)ccc1-c1cc(F)c(CNC2Cc3ccccc3C2)cc1F [4B-75] | – | – | – | Ki (opioid receptor delta; [5]): 0.309 nM; Ki (opioid receptor mu; [6]): 0.069 nM; Ki (opioid receptor kappa; [7]): 1.27 nM
6 | CCc1cc(C(N)=O)ccc1-c1c(C)cc(CNCCC2CCOCC2)cc1C [4B-76] | 0.501 nM | 1.02 nM | 8.11 nM | –
7 | CCc1cc(C(N)=O)ccc1-c1ccc(CNC2Cc3ccccc3C2)cc1C [4B-77] | 0.271 nM | 0.114 nM | 0.949 nM | –
8 | NC(=O)c1ccc(-c2ccc(CNC[C@H]3CCCO3)cc2Cl)c(Cl)c1 [4B-78] | 18.8 nM | 35.1 nM | 8.48 nM | –
9 | CC1(C)OCC(CNCc2ccc(-c3ccc(C(N)=O)cc3Cl)c(Cl)c2)O1 (stereo not shown) [4B-79] | – | – | – | Ki (opioid receptor delta; [5]): 1.42 nM; Ki (opioid receptor mu; [6]): 228 nM; Ki (opioid receptor kappa; [7]): 128 nM
10 | CC(C)CCNCc1cc(F)c(-c2ccc(C(N)=O)cc2Cl)cc1F [4B-80] | 11.8 nM | 13.7 nM | 9.5 nM | –
11 | CCc1cc(C(N)=O)ccc1-c1cc(F)c(CNCCC(C)C)c(F)c1 [4B-81] | 15.2 nM | 13.4 nM | 16.8 nM | –
12 | Cc1cc(CNC2Cc3ccccc3C2)cc(Cl)c1-c1ccc(C(N)=O)cc1Cl [4B-82] | 0.15 nM | 0.0287 nM | 1.77 nM | –
13 | Cc1cc(C(N)=O)ccc1-c1c(C)cc(CNCCC(C)C)cc1Cl [4B-83] | 1.66 nM | 0.429 nM | 3.71 nM | –
14 | Cc1cc(C(N)=O)ccc1-c1c(C)cc(CNC2Cc3ccccc3C2)cc1Cl [4B-84] | 0.0778 nM | 0.0145 nM | 0.593 nM | –
15 | Cc1cc(C(N)=O)ccc1-c1ccc(CNCCC(C)C)c(OCc2ccccc2)c1 [4B-85] | 0.588 nM | 2.48 nM | 5.48 nM | –
16 | Cc1cc(C(N)=O)ccc1-c1ccc(CNC2Cc3ccccc3C2)c(OCc2ccccc2)c1 [4B-86] | 0.0438 nM | 0.0895 nM | 1.74 nM | –
17 | Cc1cc(C(N)=O)ccc1-c1ccc(CNC2Cc3ccccc3C2)c(O)c1 [4B-88] | 0.591 nM | 0.134 nM | 0.78 nM | –
18 | COc1cc(-c2ccc(C(N)=O)cc2C)ccc1CNC1Cc2ccccc2C1 [4B-89] | 0.0895 nM | 0.0272 nM | 0.366 nM | –
19 | Cc1cc(-c2ccc(C(N)=O)cc2C)ccc1CNCCC(C)C [4B-90] | 1.66 nM | 1.17 nM | 1.66 nM | –
20 | Cc1cc(C(N)=O)ccc1-c1c(C)cc(CNCC2CCCO2)cc1Cl (stereo not shown) [4B-91] | – | – | – | Ki (opioid receptor delta; [5]): 24.5 nM; Ki (opioid receptor mu; [6]): 2.22 nM; Ki (opioid receptor kappa; [7]): 9.01 nM
21 | CC(C)CCNCc1ccc(-c2ncc(C(N)=O)cc2Cl)cc1 [4C-01] | – | – | – | Ki (opioid receptor delta; [5]): 33.8 nM; Ki (opioid receptor mu; [6]): 28 nM; Ki (opioid receptor kappa; [7]): 15.6 nM
22 | NC(=O)c1cnc(-c2ccc(CNC3Cc4ccccc4C3)cc2)c(Cl)c1 [4C-02] | 1.95 nM | 0.489 nM | 1.95 nM | –
